Experimental data taken from patent publication US12576051B2, “Methods and composition for treating respiratory obstructive diseases” (The Regents of the University of California, priority 2019, dated 2026).

What was measured:
Porcine mucin 15% (W/V) = assay: Mucolytic activity: mucin viscosity by volume displaced through Pasteur pipette; type: biochemical; conditions: 10 mg/mL, Ringer buffer with bicarbonate (25 mM), 4 hours at 37° C.; versus without cysteamine
Experimental: Porcine mucin 15% (W/V) was incubated in Ringer buffer solution containing bicarbonate (25 mM) in the presence (+) or absence (−) of Cysteamine bitartrate (10 mg/mL), for 4 h at 37° C. Thereafter, equal volume of mucin solution from each condition were aspirated separately in a sterile Pasteur pipette. Changes in mucin viscosity was measured by the rapidity of the volume displaced toward the bottom of the pipette, as indicated in each panel (0-12 seconds). […] Porcine mucin 15% (W/V) was incubated in Ringer buffer solution containing bicarbonate (25 mM) in the presence (+) or absence (−) of cysteamine bitartrate (10 mg/mL), for 4 hours at 37° C. Changes in mucin viscosity was determined by the percentage of volume displaced as a function of time (0-12 seconds) through a vertical sterile Pasteur pipette tip at room temperature.

[1] = test system: mucin released over the luminal airway surface; assay: Mucin clearance on surface airway epithelium of isolated porcine airways (histology); conditions: 200 μM, 5 min, after bicarbonate (25 mM) and PGE2 (10 μM) 5 min at 37° C.
Experimental: Cysteamine facilitates clearance of mucin released over the luminal airway surface. Porcine airways were incubated in the presence of buffer containing bicarbonate (25 mM) and PGE2 (10 μM) for 5 min at 37° C. Thereafter, airways were subsequently incubated in the presence or absence of Cysteamine (200 μM) for an additional 5 min. Airways, were harvested and processed for histological analysis.
(§1) Biological specimens: Isolated native porcine airways were used as experimental model. Sections of open trachea tissue (approx. 2 cm^2) were carefully rinsed and cover small volume of NaHCO3-Ringer solution. Mucus secretion was stimulated with Prostaglandin E2 (PGE2, 10−6 M). Secreted mucus over the dissected open airways was carefully collected, aliquoted and immediately frozen at −80° C.

[2] = test system: porcine gastric mucin extract (50 kDa band matched to Muc5ac mucin); assay: Mucolytic activity on gastric mucin (electrophoresis, Coomassie stain); type: biochemical; conditions: summary of FIG. 7 and FIG. 8
Experimental: FIG. 7 presents the effects of cysteamine bitartrate and compound 646 on porcine gastric mucin extract. One hundred microliters of gastric mucin extract (5 mg/mL) was incubated with and without cysteamine bitartrate and compound 646 separately, at 37° C. for 60 minutes.
Gastric Mucin extract solution: Mucin was prepared as stock solution of 5 mg/mL in water, in NaCl Ringer (150 mM Na^+, 4.6 mM K^+, 1 mM Ca^2+, 1 mM Mg^2+, 150 mM Cl^−, 2.5 mM PO4^x− and 10 mM glucose) pH 7.2, and in HCO3-Ringer solution (150 mM Na^+, 4.6 mM K^+, 1 mM Ca^2+, 1 mM Mg^2+, […] HCO3^−, 2.5 mM PO4^x− and 10 mM glucose) pH 8.
(§2) Mucolytic activity on gastric mucin. One hundred microliters of mucin solution were incubated with Cysteamine bitartrate or compound 646 at final concentrations from 0 to 2 mM as indicated in the text. Mixture was incubated at 37° C. for 0-1 hr. Mucolytic activity was ended with 30 microliters of SDS-sample buffer solution. Forty-five microliters of each sample/well were separated in an electrophoresis gel 4-12% Tris-Glycine. After electrophoresis gels were stained with Coomassie Blue solution.
In vitro mucolytic activity of cysteamine bitartrate and compound 646. To evaluate the mucolytic activity of cysteamine bitartrate and 2-aminoethane-1-d-1-thiol hydrochloride (Compound 646), gastric mucin extract was used as a substrate that was treated with 200 and 400 μM of cysteamine bitartrate or Compound 646 respectively.
Mass spectrometry analysis of the isolated 50 kDa protein band. Muc5ac and Muc6 mucins are two major secretory mucins found in the stomach. In order identify which of these mucins were part of the 50 kDa band, mass spectrometry was utilized. Mass spectrometry analysis of the 50 kDa protein band identified 17 unique peptides that matched with porcine Muc5ac mucin.

porcine airway mucus = assay: Mucolytic activity on porcine airway mucin (electrophoresis, Coomassie stain); type: biochemical; conditions: summary of FIG. 10
Experimental: FIG. 9 presents the effect of compound 646 on porcine airway mucus. Mucus collected from porcine upper airways diluted in NaHCO3-Ringer, was treated with different concentrations of compound 646 (0, 0.25. 0.5 and 1 mM), for 60 minutes at 37° C. In lane 1, representative protein pattern after electrophoresis protein separation of untreated porcine airway mucus (40 μg/well).
Airway mucus supernatant diluted in NaHCO3-Ringer was treated with or without cysteamine bitartrate under basic and acidic conditions at 37° C. for 60 minutes.
as §1
as §2, with “porcine airway mucin:” for “gastric mucin.”, “collected porcine airway supernatant was” for “mucin solution were”, “text.” for “text. Mixture was incubated at 37° C. for 0-1 hr.”, “45” for “Forty-five”
Mucolytic activity of synthetic compound 646. Respiratory airway mucus contained Muc5aC and Muc5B mucins. In order to determine whether compound 646 be used as a mucolytic agent for respiratory airways, supernatant of mucus collected from porcine airways was treated with compound 646 at different concentration (0-1 mM) for 1 h at 37° C.
Mucolytic activity of cysteamine bitartrate under basic and acidic conditions. To validate whether mucolytic activity of cysteamine bitartrate depends on changes of pH, airway mucus supernatant was incubated for 1 h at 37° C. with or without 2 mM cysteamine bitartrate diluted in NaHCO3. An additional airway mucus sample was treated with cysteamine bitartrate and supplemented with 4 μL of 0.1 N of acetic solution pH 4.5. […] The reduction, however, was approximately half of the decrease seen under acidic conditions.

[3] = test system: mucin extracted from porcine guts; assay: Effects of cysteamine at nM concentrations on mucin extracted from porcine guts; type: biochemical; conditions: FIG. 11
Excerpt: FIG. 11 showing the effects of cysteamine at nM concentrations, on mucin extracted from porcine guts.

porcine airway = assay: Ex vivo porcine airway models (summary statement)
Excerpt: Abnormal mucus accumulation in airways has deleterious, and fatal consequence in patients suffering from respiratory obstructive diseases, such as cystic fibrosis (CF), COPD and asthma. Therefore, there is a need for therapies aimed at decreasing mucus accumulation to facilitate airway mucus clearance.

Compound: NCCS [Cysteamine bitartrate, reference compound]
- displaced volume percentage of porcine mucin as a function of time (0-12 seconds) (Porcine mucin 15% (W/V)): noticeably reduced
- mucin clearance on airway surface epithelium [1]: cleared from the luminal surface
- anti-mucin effect against gastric mucin, Muc5ac in particular [2]: anti-mucin effect against gastric mucin
- influence of acidic conditions on mucolytic effect (porcine airway mucus): enhanced when acidic conditions are used
- dose dependence of mucolytic effect [3]: dose dependent
- accumulation of viscous mucus and mucociliary clearance (porcine airway): prevented accumulation of viscous mucus and improves mucociliary clearance
